According to patent US20150352108A1, “AMINO-PYRIMIDINE COMPOUNDS AS INHIBITORS OF TBK1 AND/OR IKK EPSILON” (Alzheimer's Institute of America, priority 2009, published 2015):

Tests used:
IKKε = target: T1, IKKε (Homo sapiens, UniProt Q14164); test: In-vitro IKKε kinase assay ([γ33]ATP filter-plate); format: biochemical; conditions: text bins; read-out: IC50 for inhibition of the kinase activity of IKKε
T1 construct: His-tag; made in house; host or cells: Sf9 insect cells
T1 sequence (Q14164 1-716): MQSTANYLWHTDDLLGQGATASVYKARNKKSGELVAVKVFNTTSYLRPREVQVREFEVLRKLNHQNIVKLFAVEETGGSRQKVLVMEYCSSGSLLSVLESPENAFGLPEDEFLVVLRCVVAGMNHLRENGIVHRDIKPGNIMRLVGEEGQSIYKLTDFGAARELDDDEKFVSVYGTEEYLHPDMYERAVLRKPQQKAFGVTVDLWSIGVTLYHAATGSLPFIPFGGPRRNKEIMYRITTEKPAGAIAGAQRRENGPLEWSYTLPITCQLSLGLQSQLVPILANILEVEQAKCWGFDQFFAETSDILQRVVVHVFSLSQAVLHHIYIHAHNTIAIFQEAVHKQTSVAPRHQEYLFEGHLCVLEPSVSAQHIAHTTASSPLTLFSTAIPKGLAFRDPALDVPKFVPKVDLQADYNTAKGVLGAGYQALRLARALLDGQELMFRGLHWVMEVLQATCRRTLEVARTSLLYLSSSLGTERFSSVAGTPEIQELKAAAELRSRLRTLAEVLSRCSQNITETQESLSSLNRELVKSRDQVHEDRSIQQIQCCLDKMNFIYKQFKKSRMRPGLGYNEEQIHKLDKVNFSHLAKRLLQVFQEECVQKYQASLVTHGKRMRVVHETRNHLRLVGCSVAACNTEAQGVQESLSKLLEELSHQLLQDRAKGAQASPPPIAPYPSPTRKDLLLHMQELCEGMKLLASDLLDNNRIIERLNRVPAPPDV
Summary of the method: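 His-tagged Sf9-expressed kinases at 0.1 or 0.02 μg/ml (TBK1) and 0.1 or 0.015 μg/ml (IKKε) for normal and sensitized formats, with myelin basic protein or casein substrate. ATP was at 2×Km (60 μM TBK1, 32 μM IKKε) plus 0.3 μCi [γ33]ATP. Reactions ran 30-45 min, were captured on P-81 filters, and counts were normalized to DMSO.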

[1] = system: IKKε-mediated phosphorylation of IRF3; test: In-situ phosphorylation of IRF3 (pIRF3 Ser396 ELISA) in HEK293T cells cotransfected with IRF3 and IKKε; format: cell-based; conditions: Homo sapiens, HEK-293T; HEK293T cells, 20 hours, text bins; read-out: IC50 for inhibition of the in-situ IKKε-mediated phosphorylation of IRF3
Protocol: HEK293T cells were cotransfected in a 10-cm dish with IRF3 and IKKε expression plasmids using Lipofectamine 2000 (Invitrogen, Carlsbad, Calif.). The following day, cells were replated at 20,000 per well in 96-well plates and treated with test compounds (compounds according to Formula I) for 20 hours. Cell lysates were prepared and analyzed using an ELISA for phospho-Ser396 (anti-IRF3 capture antibody, Santa Cruz Biotechnology, Inc., Santa Cruz, Calif.; anti-p-Ser396 IRF3 detection antibody, Cell Signaling, Danvers, Mass.). pIRF3 levels in compound treated cells were normalized to DMSO treated cells (no compound). Cell viability was assayed in a parallel set of plates to monitor cytotoxic effects of the test compounds (CellTiter-Glo, Promega, Inc., Madison, Wis.). TBK1 activity was tested by Western blotting using a phospho-specific IRF7 antibody. Similar to above, HEK293T cells were transfected with IRF7 and TBK1 expression plasmids. Cells were seeded in 12-well plates at 150,000 per well and treated overnight with test compounds. Protein lysates were prepared and processed for Western blotting followed by detection using a phosphor-Ser477/Ser479 IRF7 antibody (BD Biosciences, San Jose, Calif.)

| IC50 (IKKε) | IC50 [1] | SMILES |
| --- | --- | --- |
| < 5 nM | 250 to 500 nM | N#Cc1cc(-c2ccnc(Nc3ccc(F)c(OCC4COCCN4)c3)n2)ccc1OC1CCOCC1 (stereo not drawn) [compound 545] |
| < 5 nM | 100 to 250 nM | Cn1ccc(C(=O)Nc2cccc(Nc3nccc(-c4ccc(OC5CCOCC5)c(C#N)c4)n3)c2)n1 [compound 547, N-[3-({4-[3-Cyano-4-(tetrahydro-2H-pyran-4-yloxy)phenyl]pyrimidin-2-yl}amino)phenyl]-1-methyl-1H-pyrazole-3-carboxamide] |
| < 5 nM | < 100 nM | CN(C)Cc1cccc(Nc2nccc(-c3ccc(OC4CCOCC4)c(C#N)c3)n2)c1 [compound 548, 5-[2-({3-[(Dimethylamino)methyl]phenyl}amino)pyrimidin-4-yl]-2-(tetrahydro-2H-pyran-4-yloxy)benzonitrile] |
| < 5 nM | < 100 nM | COc1cc(Nc2ncc(F)c(-c3ccc(O[C@@H]4CCN(C(=O)CO)C4)c(C#N)c3)n2)ccc1N1CCOCC1 [compound 552, 5-(5-Fluoro-2-{[3-methoxy-4-(morpholin-4-yl)phenyl]amino}pyrimidin-4-yl)-2-{[(3R)-1-(hydroxyacetyl)pyrrolidin-3-yl]oxy}benzonitrile] |
| < 5 nM | 100 to 250 nM | CC(C)(O)C(=O)Nc1cccc(Nc2nccc(-c3ccc(OC4CCOCC4)c(C#N)c3)n2)c1 [compound 563, N-[3-({4-[3-Cyano-4-(tetrahydro-2H-pyran-4-yloxy)phentyl]pyrimidin-2-yl}amino)phenyl]-2-hydroxy-2-methylpropanamide] |
| < 5 nM | 100 to 250 nM | N#Cc1cc(-c2ccnc(Nc3ccc(S(N)(=O)=O)cc3)n2)ccc1OC1CCOCC1 [compound 564, 4-({4-[3-Cyano-4-(tetrahydro-2H-pyran-4-yloxy)phenyl]pyrimidin-2-yl}amino) benzenesulfonamide] |
| < 5 nM | < 100 nM | COC1CN(C(C)c2ccc(Nc3nccc(-c4ccc(OC5CCOCC5)c(C#N)c4)n3)cc2)C1 (stereo not drawn) [compound 571, 5-[2-({4-[1-(3-Methoxyazetidin-1-yl)ethyl]phenyl}amino)pyrimidin-4-yl]-2-(tetrahydro-2H-pyran-4-yloxy)benzonitrile] |
| < 5 nM | 250 to 500 nM | CCN(CC)CCOc1cc(Nc2nccc(-c3ccc(OC4CCN(C(=O)[C@H](C)O)CC4)c(C#N)c3)n2)ccc1F [compound 577, 5-[2-({3-[2-(Diethylamino)ethoxy]-4-fluorophenyl}amino)pyrimidin-4-yl]-2-({1-[(2S)-2-hydroxypropanoyl]piperidin-4-yl}oxy)benzonitrile] |
| < 5 nM | 250 to 500 nM | N#Cc1cc(-c2ccnc(Nc3cccc(-n4cccn4)c3)n2)ccc1OC1CCOCC1 [compound 578, 5-(2-{[3-(1H-Pyrazol-1-yl)phenyl]amino}pyrimidin-4-yl)-2-(tetrahydro-2H-pyran-4-yloxy)benzonitrile] |
| < 5 nM | 250 to 500 nM | N#Cc1cc(-c2ccnc(Nc3ccc(-n4cncn4)cc3)n2)ccc1OC1CCOCC1 [compound 580, 2-(Tetrahydro-2H-pyran-4-yloxy)-5-(2-{[4-(1H-1,2,4-triazol-1-yl)phenyl]amino}pyrimidin-4-yl)benzonitrile] |
| < 5 nM | 250 to 500 nM | N#Cc1cc(-c2ccnc(Nc3ccc4[nH]cnc4c3)n2)ccc1OC1CCOCC1 [compound 583, 5-[2-(1H-Benzimidazol-5-ylamino)pyrimidin-4-yl]-2-(tetrahydro-2H-pyran-4-yloxy)benzonitrile] |
| < 5 nM | 100 to 250 nM | CN(C)C1CCN(c2cccc(Nc3nccc(-c4ccc(OC5CCOCC5)c(C#N)c4)n3)c2)C1 (stereo not drawn) [compound 591, 5-[2-({3-[3-(Dimethylamino)pyrrolidin-1-yl]phenyl}amino)pyrimidin-4-yl]-2-(tetrahydro-2H-pyran-4-yloxy)benzonitrile] |
| < 5 nM | < 100 nM | N#Cc1cc(-c2nc(Nc3ccc(N4CCOCC4)cc3)ncc2F)ccc1OC1CCOCC1 [compound 592, 5-(5-Fluoro-2-{[4-(morpholin-4-yl)phenyl]amino}pyrimidin-4-yl)-2-(tetrahydro-2H-pyran-4-yloxy)benzonitrile] |
| < 5 nM | < 100 nM | N#Cc1cc(-c2ccnc(Nc3ccc(S(=O)(=O)Nc4ccccn4)cc3)n2)ccc1OC1CCOCC1 [compound 593, 4-({4-[3-Cyano-4-(tetrahydro-2H-pyran-4-yloxy)phenyl]pyrimidin-2-yl}amino)-N-(pyridin-2-yl) benzenesulfonamide] |
| 5 to 50 nM | 100 to 250 nM | COc1cc(Nc2nccc(-c3ccc(OCC(C)C)c(C#N)c3)n2)ccc1CN1CC(OC)C1 [compound 600, 5-[2-({3-Methoxy-4-[(3-methoxyazetidin-1-yl)methyl]phenyl}amino)pyrimidin-4-yl]-2-(2-methylpropoxy) benzonitrile] |
| < 5 nM | 100 to 250 nM | N#Cc1cc(-c2ccnc(Nc3ccc(-n4cnnc4)cc3)n2)ccc1OC1CCOCC1 [compound 607, 2-(Tetrahydro-2H-pyran-4-yloxy)-5-(2-{[4-(4H-1,2,4-triazol-4-yl)phenyl]amino}pyrimidin-4-yl)benzonitrile] |
| < 5 nM | < 100 nM | Cc1nccn1Cc1ccc(Nc2nccc(-c3ccc(OC4CCOCC4)c(C#N)c3)n2)cc1 [compound 609, 5-[2-({4-[(2-Methyl-1H-imidazol-1-yl)methyl]phenyl}amino)pyrimidin-4-yl]-2-(tetrahydro-2H-pyran-4-yloxy)benzonitrile] |
| < 5 nM | 250 to 500 nM | N#Cc1cc(-c2ccnc(Nc3ccc(/C=C/CN4CCOCC4)cc3)n2)ccc1OC1CCOCC1 [compound 614, 5-[2-({4-[(1E)-3-(Morpholin-4-yl)prop-1-en-1-yl]phenyl}amino)pyrimidin-4-yl]-2-(tetrahydro-2H-pyran-4-yloxy)benzonitrile] |
| < 5 nM | 100 to 250 nM | COc1cc(Nc2nccc(-c3ccc(OCC4CC4)c(C#N)c3)n2)ccc1CN1CC(OC)C1 [compound 617, 2-(Cyclopropylmethoxy)-5-[2-({3-methoxy-4-[(3-methoxyazetidin-1-yl)methyl]phenyl}amino)pyrimidin-4-yl]benzonitrile] |
| < 5 nM | < 100 nM | N#Cc1cc(-c2ccnc(Nc3ccc(Cn4cncn4)cc3)n2)ccc1OC1CCOCC1 [compound 624, 2-(Tetrahydro-2H-pyran-4-yloxy)-5-(2-{[4-(1H-1,2,4-triazol-1-ylmethyl)phenyl]amino}pyrimidin-4-yl)benzonitrile] |
| < 5 nM | < 100 nM | Cc1ccc(Nc2nccc(-c3ccc(OC4CCOCC4)c(C#N)c3)n2)cc1NCCN(C)C [compound 628, 5-[2-[[3-(2-dimethylamino-ethylamino)-4-methyl-phenyl]amino}pyrimidin-4-yl]-2-tetrahydropyran-4-yloxy-benzonitrile] |
| < 5 nM | < 100 nM | N#Cc1cc(-c2ccnc(Nc3ccc(Cn4cnnn4)cc3)n2)ccc1OC1CCOCC1 [compound 629, 2-(Tetrahydro-2H-pyran-4-yloxy)-5-(2-{[4-(1H-tetrazol-1-ylmethyl)phenyl]amino}pyrimidin-4-yl)benzonitrile] |
| < 5 nM | < 100 nM | N#Cc1cc(-c2ccnc(Nc3cccc(CN4CCOCC4)c3)n2)ccc1OC1CCOCC1 [compound 638, 5-(2-{[3-(Morpholin-4-ylmethyl)phenyl]amino}pyrimidin-4-yl)-2-(tetrahydro-2H-pyran-4-yloxy)benzonitrile] |
| < 5 nM | < 100 nM | CN(C)Cc1cccc(Nc2nccc(-c3ccc(O[C@@H]4CCN(C(=O)CO)C4)c(C#N)c3)n2)c1 [compound 642, 5-[2-({3-[(Dimethylamino)methyl]phenyl}amino)pyrimidin-4-yl]-2-{[(3R)-1-(hydroxyacetyl)pyrrolidin-3-yl]oxy}benzonitrile] |
